Measurements taken from publication PMC12287757, “Exploring the inhibitory effect and mechanism of 3,4,5-trihydroxybiphenyl on α-glucosidase: an integrated experimental and computational approach” (Frontiers in Pharmacology, 2025).

Molecular target: α-glucosidase
Assay: SPR (Biacore 8K, CM5 chip, immobilized enzyme); also p-NPG inhibition (IC50 […], Ki […], non-competitive, reversible) and CD
Type: binding, Saccharomyces cerevisiae

`Oc1cc(-c2ccccc2)cc(O)c1O` [THB, 3,4,5-Trihydroxybiphenyl] gave a Kd of 39.1 µM.
